The source made the active and inactive calls. No cut-off for these calls is given here.
Tests used:
[1] = target: T1, Ectonucleotide pyrophosphatase/phosphodiesterase family member 1 (Homo sapiens, UniProt P22413); test: Inhibition of recombinant human ENPP1 using cGAMP as substrate assessed as inhibition of cGAMP hydrolysis preincubated for 5 to 10 mins followed by substrate addition and measured after 90 mins by AMP-Glo reagent based luminescence plate reader analysis
T1 sequence (P22413 whole entry): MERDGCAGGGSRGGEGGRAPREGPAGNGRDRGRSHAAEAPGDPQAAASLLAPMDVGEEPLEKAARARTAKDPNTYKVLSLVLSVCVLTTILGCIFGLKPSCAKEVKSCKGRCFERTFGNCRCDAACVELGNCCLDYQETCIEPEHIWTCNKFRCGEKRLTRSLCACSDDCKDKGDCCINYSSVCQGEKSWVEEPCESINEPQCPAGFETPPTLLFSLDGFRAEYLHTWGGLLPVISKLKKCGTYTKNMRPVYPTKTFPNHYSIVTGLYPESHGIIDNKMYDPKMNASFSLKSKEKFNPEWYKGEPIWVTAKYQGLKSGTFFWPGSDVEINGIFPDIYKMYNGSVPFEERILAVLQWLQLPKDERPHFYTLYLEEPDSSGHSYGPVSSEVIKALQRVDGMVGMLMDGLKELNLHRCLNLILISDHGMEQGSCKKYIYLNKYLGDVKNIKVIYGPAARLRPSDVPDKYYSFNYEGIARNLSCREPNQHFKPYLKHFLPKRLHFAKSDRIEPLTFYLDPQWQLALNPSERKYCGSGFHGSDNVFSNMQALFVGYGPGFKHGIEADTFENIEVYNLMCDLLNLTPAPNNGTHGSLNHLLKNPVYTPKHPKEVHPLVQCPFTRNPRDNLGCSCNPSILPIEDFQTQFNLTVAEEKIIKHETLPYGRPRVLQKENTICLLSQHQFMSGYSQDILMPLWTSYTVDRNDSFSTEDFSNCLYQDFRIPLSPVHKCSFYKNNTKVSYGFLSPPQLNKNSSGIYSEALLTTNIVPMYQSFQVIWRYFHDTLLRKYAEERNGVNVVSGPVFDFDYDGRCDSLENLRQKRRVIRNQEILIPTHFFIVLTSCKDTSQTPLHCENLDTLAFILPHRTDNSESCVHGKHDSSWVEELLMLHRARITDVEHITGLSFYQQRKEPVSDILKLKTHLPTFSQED

[2] = target: Stimulator of interferon genes protein (Homo sapiens) (UniProt Q86WV6); test: (§1) Activation of STING-mediated immune response in human HCT-116 cells transfected with ISRE reporter assessed as increase in cGAMP-induced ISRE activation by measuring fold change at 25 to 100 uM preincubated with compound for 1 hrs followed by cGAMP addition and measured after 48 hrs by luciferase reporter gene assay; format: cell-based; settings: filed as activator, dose 25-100 µM, time 49.0 hrs
[3] = target: Stimulator of interferon genes protein (Homo sapiens) (UniProt Q86WV6); test: Activation of STING-mediated immune response in human HCT-116 cells transfected with ISRE reporter assessed as increase in cGAMP-induced ISRE activation at 25 to 100 uM preincubated with compound for 1 hrs followed by cGAMP addition and measured after 48 hrs by luciferase reporter gene assay; format: cell-based; settings: filed as activator, dose 25-100 µM, time 49.0 hrs
[4] = target: Stimulator of interferon genes protein (Homo sapiens) (UniProt Q86WV6); test: as §1, with “at” for “at 25 to”; format: cell-based; settings: filed as activator, time 49.0 hrs

Sequence of Stimulator of interferon genes protein (Homo sapiens) (Q86WV6 whole entry): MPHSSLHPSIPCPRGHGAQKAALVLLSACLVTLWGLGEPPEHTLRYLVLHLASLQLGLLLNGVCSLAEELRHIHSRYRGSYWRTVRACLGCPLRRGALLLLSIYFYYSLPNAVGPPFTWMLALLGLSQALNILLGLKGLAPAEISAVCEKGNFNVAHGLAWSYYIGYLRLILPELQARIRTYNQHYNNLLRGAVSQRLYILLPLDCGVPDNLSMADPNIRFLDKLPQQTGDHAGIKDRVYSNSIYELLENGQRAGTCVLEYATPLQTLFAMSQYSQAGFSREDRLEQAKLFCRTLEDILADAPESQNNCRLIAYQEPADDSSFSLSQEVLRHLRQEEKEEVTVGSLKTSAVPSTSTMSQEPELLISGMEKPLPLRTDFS

| IC50 [1] | fold change (FC) [2] | Activity [3] | fold change (FC) [4] | SMILES |
| --- | --- | --- | --- | --- |
| 377 nM | – | – | – | NS(=O)(=O)NCc1ccc(-c2n[nH]c(=O)c3ccccc23)cc1C(F)(F)F |
| 210 nM | 1.53 | – | – | COc1cc2c(Cc3ccc4c(c3)CCN4S(N)(=O)=O)n[nH]c(=O)c2cc1OC |
| 298 nM | – | Active | – | NS(=O)(=O)Nc1ccc(Cc2n[nH]c(=O)c3ccccc23)cc1F |
| 2450 nM | – | – | – | Cn1nc(N2CCC(CNS(N)(=O)=O)CC2)c2ccccc2c1=O |
| 1450 nM | – | – | – | NS(=O)(=O)NCc1ccc(-c2nn(Cc3ccccc3)c(=O)c3ccccc23)cc1 |
| 1140 nM | – | – | – | NS(=O)(=O)NCc1ccc(-c2nn(-c3ccccc3)c(=O)c3ccccc23)cc1 |
| 166 nM | – | Active | – | COc1cc2c(Cc3ccc(N(C)S(N)(=O)=O)cc3)n[nH]c(=O)c2cc1OC |
| 39 nM | 1.85 | – | – | NS(=O)(=O)Nc1ccc(Cc2n[nH]c(=O)c3ccccc23)cc1 |
| 118 nM | – | Active | – | COc1cc2c(Cc3ccc(NS(N)(=O)=O)cc3)nn(C)c(=O)c2cc1OC |
| 1310 nM | – | – | – | COc1ccc2c(=O)n(C)nc(-c3ccc(CNS(N)(=O)=O)cc3)c2c1 |
| 441 nM | – | – | – | NS(=O)(=O)NCC1CCN(c2n[nH]c(=O)c3ccccc23)CC1 |
| 139 nM | – | – | 1.71 | NS(=O)(=O)NCc1ccc(-c2n[nH]c(=O)c3ccccc23)cc1 |
| 286 nM | – | – | 1.75 | Cn1nc(-c2ccc(CNS(N)(=O)=O)cc2)c2ccccc2c1=O |
| 273 nM | – | Active | – | NS(=O)(=O)Nc1ccc(Cc2n[nH]c(=O)c3ccccc23)c(F)c1 |
| 395 nM | – | – | – | COc1cc2c(N3CCC(CNS(N)(=O)=O)CC3)n[nH]c(=O)c2cc1OC |
| 247 nM | – | Active | – | COc1cc2c(Cc3ccc(N(C)S(N)(=O)=O)cc3)nn(C)c(=O)c2cc1OC |
| 1360 nM | – | – | – | NS(=O)(=O)Nc1ccc(Cc2n[nH]c(=O)c3ccccc23)c(C(F)(F)F)c1 |
| 590 nM | – | – | – | COc1ccc2c(-c3ccc(CNS(N)(=O)=O)cc3)n[nH]c(=O)c2c1 |
| 207 nM | 3.23 | – | – | COc1cc2c(Cc3ccc4c(c3)CCN4S(N)(=O)=O)nn(C)c(=O)c2cc1OC |
| 1140 nM | – | – | – | CN(c1ccc(Cc2n[nH]c(=O)c3ccccc23)cc1)S(N)(=O)=O |
| 69 nM | 2.49 | – | – | COc1cc2c(Cc3ccc(NS(N)(=O)=O)cc3)n[nH]c(=O)c2cc1OC |
| 454 nM | – | – | – | COc1cc2c(N3CCC(CNS(N)(=O)=O)CC3)nn(C)c(=O)c2cc1OC |
| 1810 nM | – | – | – | Cn1nc(-c2ccc(CCS(N)(=O)=O)cc2)c2ccccc2c1=O |
| 2220 nM | – | – | – | Cn1nc(-c2ccc3c(c2)CCN(S(N)(=O)=O)C3)c2ccccc2c1=O |
| 2190 nM | – | – | – | NS(=O)(=O)Nc1ccc(Cc2n[nH]c(=O)c3ccccc23)cc1C(F)(F)F |
| 37 nM | – | – | 1.07 | COc1cc2c(-c3ccc(CNS(N)(=O)=O)cc3)n[nH]c(=O)c2cc1OC |

Source: ChEMBL document CHEMBL5370672, “Discovery of Orally Bioavailable Phthalazinone Analogues as an ENPP1 Inhibitor for STING-Mediated Cancer Immunotherapy” (J Med Chem, 2023)
